Test results as given in patent US20040006236A1, “Diaminopropionic acid derivatives” (priority 1999, published 2004).

Key:
[1] = test system: T lymphocyte proliferation (C57BI/6 spleen cells with irradiated BALB/c spleen cells); test: Mixed lymphocyte reaction (MLR), one-way; assay type: cell-based, mice; settings: Mus musculus, T-lymphocyte; read-out: MLR IC50
Procedure, shortened: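 One-way murine MLR: C57BI/6 responder splenocytes proliferate against irradiated BALB/c stimulators while exposed to serially diluted antagonists in supplemented RPMI1640 for 3 days. Proliferation read as [3H]-thymidine uptake over a final 6 h pulse (0.5 μCi/well), scintillation counted.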

[2] = test system: cell-surface Mac-1 adhesion to immobilized fibrinogen (HL-60 cells); test: Mac-1/Fibrinogen cell-based screening assay; design: species or system human; settings: Homo sapiens, HL-60, HL-60 cells; read-out: Mac-1/Fgn Cell based Assay IC50
Procedure, shortened: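 Wells coated with fibrinogen and blocked with PVP. Labeled HL-60 cells (2×10^6 cells/mL in RPMI/0.05% BSA/0.2 mM MnCl2) preincubated with DMSO-diluted compounds for 10 min at 37° C, then left to adhere 30 min at 37° C/5% CO2. Unbound cells washed off with TBS.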

[3] = target: T1, ICAM-1 binding to immobilized Mac-1 (Homo sapiens, UniProt P05107+P11215); test: Mac-1/ICAM-1 screening assay (solid-phase ELISA); settings: read-out: Mac-1/ICAM-1 Protein-Protein Assay IC50
T1 construct: made in house; host or cells: transfected 293 cells (Mac-1)
Procedure, shortened: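 Competitive solid-phase ELISA: membrane Mac-1 from transfected 293 cells coated at 3 μg/mL in 20 mM Hepes pH 7.2/0.14 M NaCl/1 mM MnCl2; compounds (0.12 nM-20 μM, 1:4 series) plus 5dICAM-Ig (40 μg/mL, added) 2 h at 37° C. Bound ICAM-Ig detected with HRP anti-human IgG Fc, TMB, A450; IC50 reported.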

T1 sequence (P05107 23-769, other chains not shown): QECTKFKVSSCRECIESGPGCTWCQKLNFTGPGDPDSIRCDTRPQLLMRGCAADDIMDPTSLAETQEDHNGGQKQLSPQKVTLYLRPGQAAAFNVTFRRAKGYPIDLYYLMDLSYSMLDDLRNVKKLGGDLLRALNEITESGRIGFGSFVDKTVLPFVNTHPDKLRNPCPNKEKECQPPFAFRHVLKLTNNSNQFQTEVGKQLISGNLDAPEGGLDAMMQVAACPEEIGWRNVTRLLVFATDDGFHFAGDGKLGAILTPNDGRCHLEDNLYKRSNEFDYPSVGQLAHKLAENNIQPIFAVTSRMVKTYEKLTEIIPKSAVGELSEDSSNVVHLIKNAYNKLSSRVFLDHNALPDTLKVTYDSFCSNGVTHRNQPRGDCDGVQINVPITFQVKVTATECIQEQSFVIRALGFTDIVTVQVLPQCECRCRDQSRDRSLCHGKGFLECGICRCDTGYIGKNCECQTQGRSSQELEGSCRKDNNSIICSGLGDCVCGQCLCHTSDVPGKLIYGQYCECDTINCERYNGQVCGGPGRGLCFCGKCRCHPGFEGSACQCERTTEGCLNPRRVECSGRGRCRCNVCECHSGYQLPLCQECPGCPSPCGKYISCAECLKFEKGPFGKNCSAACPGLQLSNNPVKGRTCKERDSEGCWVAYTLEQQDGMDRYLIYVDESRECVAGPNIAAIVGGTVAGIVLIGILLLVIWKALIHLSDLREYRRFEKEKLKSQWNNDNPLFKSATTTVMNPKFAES

O=C(CC1CCCC1)NC[C@H](NC(=O)c1ccc(C(=O)NCc2cccc(O)c2)cc1Cl)C(=O)O [Example 77]
IC50 [1]: 700 nM | IC50 [2]: 312 nM | IC50 [3]: 25 nM
